Measured values: patent US9701680B2, “Pyrimidine and pyridine compounds and their usage” (HUTCHISON MEDIPHARMA LIMITED, priority 2013, dated 2017)
pIC50: −log10 of the molar value. Like-named read-outs stand apart in the source and are kept apart here.

Experiments:
[1] = test system: SNU-16; assay: Cellular Proliferation Assay (Cell Counting Kit-8), SNU-16; format: cell-based; details: Homo sapiens; SNU-16 cells, 72 hours
Protocol: (§1) Example 26: Cellular Proliferation Assay
(§2) • 1. Cell Line • KG-1 (ATCC Accession No. CCL-246), • SNU-16 (ATCC Accession No. CRL-5974), • RT-112 (ECACC Accession No. 85061106) • 2. Assay Protocol • FGFR related cancer cell proliferation is measured in 96-well plates using Cell Counting Kit-8 (Dojindo CK04-13). • Seed 30000 cells/well of KG1, 5000 cells/well of SNU16, and 1000 cells/well of RT112 in a volume of 100 μL/well in growth media. • After 24 hours, dilute the test compound to 10, 3.3, 1.1, 0.37, 0.12, 0.04, 0.013, 0.004 μM, keeping the DMSO concentration at 5%. • Add 10 μL of 8-point compound series to the wells of culturing cells. • Incubate at 37° C. and 5% CO2 for 72 hours • Add 10 μL/well of CCkit8 and incubate at 37° C. and 5% CO2 for an hour • Detect the optical density of each well at 450 nm on Labsystems Multiskan K3. • 3. Data Analysis
(§3) [formula] Note: • ODcompound well represents the optical density of cells treated with compound. • ODcell well represents the optical density of cells without compounds treatment.(only 0.5% DMSO) • ODcontrol well represents the optical density of culture media background • IC50: determined with add-in software for Microsoft Excel, XLfit™ (version 2.0) from ID Business Solutions (Guildford, UK).

[2] = test system: RT-112; assay: Cellular Proliferation Assay (Cell Counting Kit-8), RT-112; format: cell-based; details: Homo sapiens; RT-112 cells, 72 hours
Protocol: as §1, §2, §3

[3] = target: Recombinant human FGFR1 (Homo sapiens, UniProt P11362); assay: Transcreener Kinase Assay of FGFR1; format: biochemical
Chain of Recombinant human FGFR1 (P11362 22-822): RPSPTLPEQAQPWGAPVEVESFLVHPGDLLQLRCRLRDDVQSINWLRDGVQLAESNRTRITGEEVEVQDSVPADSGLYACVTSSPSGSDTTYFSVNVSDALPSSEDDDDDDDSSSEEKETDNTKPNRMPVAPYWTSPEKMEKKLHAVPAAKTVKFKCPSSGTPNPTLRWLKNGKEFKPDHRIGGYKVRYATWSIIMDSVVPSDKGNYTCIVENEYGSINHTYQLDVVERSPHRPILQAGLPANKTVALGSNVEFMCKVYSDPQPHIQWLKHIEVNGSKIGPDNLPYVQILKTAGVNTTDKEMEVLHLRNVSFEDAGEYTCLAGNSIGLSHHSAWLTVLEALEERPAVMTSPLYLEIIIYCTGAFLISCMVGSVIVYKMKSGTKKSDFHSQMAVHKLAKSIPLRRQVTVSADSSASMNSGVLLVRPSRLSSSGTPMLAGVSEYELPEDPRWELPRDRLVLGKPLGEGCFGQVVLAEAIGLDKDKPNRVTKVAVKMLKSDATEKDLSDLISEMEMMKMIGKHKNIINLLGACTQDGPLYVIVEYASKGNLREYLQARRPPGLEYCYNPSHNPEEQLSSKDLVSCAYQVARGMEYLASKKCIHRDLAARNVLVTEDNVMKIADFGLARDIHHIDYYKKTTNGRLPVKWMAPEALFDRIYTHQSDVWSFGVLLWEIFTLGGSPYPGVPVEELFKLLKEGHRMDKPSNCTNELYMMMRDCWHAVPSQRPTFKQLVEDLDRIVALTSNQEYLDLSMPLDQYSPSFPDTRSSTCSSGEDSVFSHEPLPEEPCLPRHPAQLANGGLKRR
Protocol: (§4) • 1. […] Prepare Solution • Test compounds were solved in DMSO and were diluted with assay buffer to 5 folds of final concentration keeping the DMSO concentration at 5%. Further dilution are needed to make final concentrations are at 1, 0.33, 0.11, 0.037, 0.012, 0.004, 0.0014, 0.0005 μM; (the final concentration of DMSO is 1%). • Enzyme/Substrate stock Preparation: Recombinant human FGFR1 and Poly E4Y are both diluted in assay buffer.
• 3. Enzymatic Reaction • In a 96-well plate, add 5 μL of diluted solution of test compound or control solution. (positive control: 5 μL of 5% DMSO; negative control: 5 μL of 500 mM EDTA) into desired wells respectively; • Add 10 μL of Enzyme/Substrate stock into each well; • Add 10 μL of ATP Diluents to initiate the enzyme reaction and vortex the plate immediately on a plate shaker; • For the wells to make standard curve, add 5 μL of 5% DMSO, 10 μL of assay buffer and 10 μL of ATP standard curve stock. • Incubate the plate for 45 min at 28° C. on a plate shaker in a low speed. • 4. […] Excitation wavelength: 610 nm, Emission wavelength: 670 nm. • 5. Data Analysis
(§5) [formula] Note: • [ADP] in Compound well represents the ADP concentration in test compound well. • [ADP] in Positive control well represents the ADP concentration in 5% DMSO well • Conversion of mP value to ADP concentration is calculated based on the formula which determined by standard curve. And mP value is measured by following the instruction provided by BellBrook Labs. (www.bellbrooklabs.com). • 6. IC50: determined with add-in software for Microsoft Excel, XLfit™ (version 2.0) from ID Business Solutions (Guildford, UK).

[4] = target: FGFR3 kinase (Homo sapiens, UniProt P22607); assay: Z-Lyte Kinase Assay of FGFR3; format: biochemical
Chain of FGFR3 kinase (P22607 23-806): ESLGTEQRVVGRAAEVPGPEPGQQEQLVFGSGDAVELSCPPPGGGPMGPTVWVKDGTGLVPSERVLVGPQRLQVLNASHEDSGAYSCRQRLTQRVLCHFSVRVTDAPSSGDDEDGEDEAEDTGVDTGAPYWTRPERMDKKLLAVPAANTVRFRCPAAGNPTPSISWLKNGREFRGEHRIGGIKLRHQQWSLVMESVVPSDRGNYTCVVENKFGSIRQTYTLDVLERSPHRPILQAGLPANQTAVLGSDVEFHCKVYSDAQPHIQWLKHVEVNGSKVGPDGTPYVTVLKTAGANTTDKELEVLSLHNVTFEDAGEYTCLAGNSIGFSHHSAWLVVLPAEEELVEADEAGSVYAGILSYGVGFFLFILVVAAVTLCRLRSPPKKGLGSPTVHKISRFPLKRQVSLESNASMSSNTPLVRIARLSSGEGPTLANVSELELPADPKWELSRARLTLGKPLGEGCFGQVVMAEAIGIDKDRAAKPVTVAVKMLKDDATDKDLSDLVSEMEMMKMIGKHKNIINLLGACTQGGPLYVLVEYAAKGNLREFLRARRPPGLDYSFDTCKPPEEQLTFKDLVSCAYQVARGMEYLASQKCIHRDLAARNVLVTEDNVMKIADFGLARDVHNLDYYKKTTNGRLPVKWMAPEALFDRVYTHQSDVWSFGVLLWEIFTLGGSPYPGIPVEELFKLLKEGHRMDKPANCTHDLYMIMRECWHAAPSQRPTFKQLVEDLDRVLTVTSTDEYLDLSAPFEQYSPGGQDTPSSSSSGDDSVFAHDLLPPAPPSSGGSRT
Protocol: Example 25: Z-Lyte Kinase Assay of FGFR3
• 1. Materials and Reagents:
• 2. Reaction Steps: Plate Map
• 3. […] The final concentrations are 1, 0.33, 0.11, 0.037, 0.012, 0.004, 0.0014, 0.00046 μM, and the final concentration of DMSO is 2%. • 3) Kinase/Peptide Mixture (P/K solution): Prepare Kinase/Peptide Mixture by diluting the kinase to 0.7 μg/ml and the Z-LYTE™ Tyr 4 peptide to 4 μM in 1.33× Kinase Buffer. Mix gently by pipetting. • 4) Phospho-peptide Solution (PP solution): Add 0.4 μl of Z-LYTE™ Tyr 4 Phospho-peptide to 99.6 μl of 1.33× Kinase Buffer. • 5) ATP Solution: Prepare ATP Solution by diluting the 10 mM of ATP in 1.33× Kinase Buffer to 300 uM. • 6) Development Solution: Dilute Development Reagent B with Development Buffer as 1:128. • 4. […] Shake the plate for 30 Sec and centrifuge (1500 rpm, 1 min). • Seal the plate to protect from the light and incubate the plate for 1 hour at RT (25-30° C.). • 2) Development reaction • Add 5 μl of the Development solution to all wells. • Shake the plate for 30 Sec and centrifuge (1500 rpm, 1 min). • Seal the plate to protect from the light and incubate the plate for 1 hour at RT (25-30° C.). • 3) Stop and Read • Add 5 μl of the Stop reagent to all wells. • Shake the plate for 30 Sec and centrifuge (1500 rpm, 1 min). • Measure the value of Coumarin (Ex400 nm, Em445 nm) and fluorescein (Ex400 nm, Em520 nm), respectively. • 5. Data Analysis Emission Ratio(ER)=Coumarin Emission (445 nm)/Fluorescein Emission (520 nm) % Phosphorylation=1−[ER×C3520nm-C3445nm]/[(C1445nm-C3445nm)+ER×(C3520nm−C1520nm)] Inhibition rate (IR)=1−% Photest Cpd/% PhoC2 • 6. IC50 Value: determined with add-in software for Microsoft Excel, XLfit™ (version 2.0) from ID Business Solutions (Guildford, UK)

[5] = target: Recombinant human FGFR2 (Homo sapiens, UniProt P21802); assay: Transcreener Kinase Assay of FGFR2; format: biochemical
Chain of Recombinant human FGFR2 (P21802 22-821): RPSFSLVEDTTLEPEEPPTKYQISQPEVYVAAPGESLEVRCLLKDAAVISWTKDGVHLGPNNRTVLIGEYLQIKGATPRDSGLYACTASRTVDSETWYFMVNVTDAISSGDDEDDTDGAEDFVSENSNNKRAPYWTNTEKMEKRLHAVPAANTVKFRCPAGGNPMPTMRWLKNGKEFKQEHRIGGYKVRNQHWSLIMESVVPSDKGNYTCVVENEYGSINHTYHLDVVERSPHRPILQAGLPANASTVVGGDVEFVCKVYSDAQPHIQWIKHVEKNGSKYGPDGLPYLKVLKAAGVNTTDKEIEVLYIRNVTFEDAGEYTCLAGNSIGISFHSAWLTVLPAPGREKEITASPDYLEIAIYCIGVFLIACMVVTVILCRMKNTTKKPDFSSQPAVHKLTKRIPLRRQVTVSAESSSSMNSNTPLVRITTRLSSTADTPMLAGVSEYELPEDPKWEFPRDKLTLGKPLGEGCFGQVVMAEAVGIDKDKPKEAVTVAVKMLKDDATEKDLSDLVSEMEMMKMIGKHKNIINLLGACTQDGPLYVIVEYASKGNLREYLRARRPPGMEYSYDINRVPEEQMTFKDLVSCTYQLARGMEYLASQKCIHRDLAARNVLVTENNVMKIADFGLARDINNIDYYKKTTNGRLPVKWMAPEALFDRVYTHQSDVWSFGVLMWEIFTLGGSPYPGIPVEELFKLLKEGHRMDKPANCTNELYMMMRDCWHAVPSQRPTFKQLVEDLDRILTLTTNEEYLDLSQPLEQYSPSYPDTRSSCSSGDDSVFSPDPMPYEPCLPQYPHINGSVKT
Protocol: Example 24: Transcreener Kinase Assay of FGFR2
as §4, with “FGFR2” for “FGFR1”, “buffer. The final concentration is 0.3 ng/μL for FGFR2 and 62.5 ng/μL for Poly E4Y. The mixture is being kept in ice before use; • Prepare ATP Diluents, 10 mM ATP is diluted in assay buffer, the final concentration is 25 μM; • Prepare ADP Diluents: diluted ADP (500 μM) in assay buffer, the final concentration is 25 μM; • Prepare ATP standard curve stock as following:” for “buffer.”
• 3. Enzymatic Reaction • In a 96-well plate, add 5 μL of deluted solution of test compound or control solution. (positive control: 5 μL of 5% DMSO; negative control: 5 μL of 500 mM EDTA) into desired wells respectively; • Add 10 μL of Enzyme/Substrate stock into each well; • Add 10 μL of ATP Diluents to initiate the enzyme reaction and vortex the plate immediately on a plate shaker; • For the wells to make standard curve, add 5 μL of 5% DMSO, 10 μL of assay buffer and 10 μL of ATP standard curve stock. • Incubate the plate for 45 min at 28° C. on a plate shaker in a low speed. • 4. Stoping Reaction and Detecting ADP • Detection Mix Preparation: The mixture is made by dilution with MilliQ water; as following: ADP Alexa633 tracer (1:100), ADP antibody (1:158), and stop & detect buffer (1:10); • Tracer Only control Preparation: The mixture is made by dilution with MilliQ water; as following: ADP Alexa633 tracer (1:100), and stop & detect buffer (1: 10) • No Tracer control Preparation: stop & detect buffer is diluted with MilliQ water; by 10 fold. • Add 25 μL of detection mix, Tracer Only control and No Tracer control into corresponding wells, respectively; • Incubate at 28° C. for 1 h, on a plate shaker in a low speed; • Measure florescence polarization (mP) on TECAN F500. Excitation wavelength: 610 nm, Emission wavelength: 670 nm. • 5. Data Analysis
as §5

[6] = test system: KG-1; assay: Cellular Proliferation Assay (Cell Counting Kit-8), KG-1; format: cell-based; details: Homo sapiens; KG-1 cells, 72 hours; read-out: KG1 IC50
Protocol: as §1, §2, §3

CNC(=O)c1cc(COc2cnc(Nc3ccc4c(c3)NCC4)nc2)c(F)c(OC)c1 [Compound 214]
pIC50 [1]: 7.57
pIC50 [2]: 7.05
pIC50 ([3]; read-out: FGFR1 (FP) IC50): 7.17
pIC50 [4]: 7.72
pIC50 ([5]; read-out: FGFR2 (FP) IC50): 7.60
pIC50 [6]: 8.22

CNC(=O)c1cc(OC)c(F)c(COc2cnc(Nc3cccc(N4C[C@@H](C)N[C@@H](C)C4)c3)nc2)c1F [Compound 275]
pIC50 [1]: 7.74
pIC50 [2]: 7.21
pIC50 ([3]; read-out: FGFR1 (FP) IC50): 7.85
pIC50 [4]: 7.85
pIC50 ([5]; read-out: FGFR2 (FP) IC50): 8.05
pIC50 [6]: 7.34

CNC(=O)c1cc(COc2cnc(Nc3cnn(C[C@@H](O)CO)c3)nc2)c(F)c(OC)c1 [Compound 219]
pIC50 ([3]; read-out: FGFR1 (FP) IC50): 7.85
pIC50 [4]: 8.10
pIC50 ([5]; read-out: FGFR2 (FP) IC50): 8.00

CNC(=O)c1cc(COc2cnc(Nc3cnn(C[C@H](O)CO)c3)nc2)c(F)c(OC)c1 [Compound 220]
pIC50 ([3]; read-out: FGFR1 (FP) IC50): 7.77
pIC50 [4]: 8.10
pIC50 ([5]; read-out: FGFR2 (FP) IC50): 8.00

CNC(=O)c1cc(COc2cnc(Nc3ccc(C4CCNCC4)c(OC)c3)nc2)c(F)c(OC)c1 [Compound 258]
pIC50 ([3]; read-out: FGFR1 (FP) IC50): 7.55
pIC50 [4]: 7.77
pIC50 ([5]; read-out: FGFR2 (FP) IC50): 7.82

CNC(=O)c1cc(COc2cnc(Nc3ccc(N4C[C@@H]5CCN(C)[C@@H]5C4)c(OC)c3)nc2)c(F)c(OC)c1 [Compound 293]
pIC50 ([3]; FP): 7.74
pIC50 ([4]; Z-lyte): 7.96
pIC50 ([5]; FP): 8.10

CNC(=O)c1cc(COc2cnc(Nc3ccc(N4C[C@@H](C)N[C@@H](C)C4)nc3)nc2)c(F)c(OC)c1 [Compound 257]
pIC50 [6]: 6.99

CCN1CCN(c2ccc(Nc3ncc(CCc4cc(C(=O)NC)cc(OC)c4F)cn3)cc2OC)CC1 [Compound 157]
pIC50 ([3]; read-out: FGFR1 (FP) IC50): 8.15
pIC50 [4]: 8.22
pIC50 ([5]; read-out: FGFR2 (FP) IC50): 8.30

CCn1cc(Nc2ncc(/C=C/c3cc(C(=O)NC)cc(OC)c3Br)cn2)cn1 [Compound 3]
pIC50 ([3]; read-out: FGFR1 (FP) IC50): 7.55
pIC50 [4]: 6.73
pIC50 ([5]; read-out: FGFR2 (FP) IC50): 7.55

CCN1CC[C@H](n2cc(Nc3ncc(CCc4cc(C(=O)NC)cc(OC)c4F)cn3)cn2)C1 [Compound 191]
pIC50 ([3]; read-out: FGFR1 (FP) IC50): 7.00
pIC50 [4]: 6.88
pIC50 ([5]; read-out: FGFR2 (FP) IC50): 7.06

CNC(=O)c1cc(COc2cnc(Nc3ccc(N4CCN(C5CC5)CC4)c(OC)c3)nc2)c(F)c(OC)c1 [Compound 294]
pIC50 ([3]; FP): 7.85
pIC50 ([4]; Z-lyte): 8.30
pIC50 ([5]; FP): 8.22

CNC(=O)c1cc(CCc2cnc(Nc3cnn([C@H]4CCOC4)c3)nc2)c(F)c(OC)c1 [Compound 137]
pIC50 [1]: 7.74
pIC50 ([3]; read-out: FGFR1 (FP) IC50): 8.05
pIC50 [4]: 7.89
pIC50 ([5]; read-out: FGFR2 (FP) IC50): 8.30

CNC(=O)c1cc(COc2cnc(Nc3ccc(C4CCNCC4)nc3)nc2)c(F)c(OC)c1 [Compound 236]
pIC50 ([3]; read-out: FGFR1 (FP) IC50): 7.55
pIC50 [4]: 8.05
pIC50 ([5]; read-out: FGFR2 (FP) IC50): 7.85

CCOc1cc(CCc2cnc(Nc3ccc(N4CCN(CC)CC4)cc3)nc2)cc(C(=O)NOC)c1 [Compound 50]
pIC50 [1]: 6.24
pIC50 [6]: 6.41

CNC(=O)c1cc(CCc2cnc(Nc3cnn([C@@H]4CCOC4)c3)nc2)c(F)c(OC)c1 [Compound 136]
pIC50 [2]: 6.78
pIC50 ([3]; read-out: FGFR1 (FP) IC50): 8.00
pIC50 ([5]; read-out: FGFR2 (FP) IC50): 8.15
pIC50 [6]: 7.54

CNC(=O)c1cc(CCc2cnc(Nc3cccc(N4C[C@@H](C)N[C@@H](C)C4)c3)nc2)cc(OC)c1 [Compound 12]
pIC50 [1]: 6.58

CNC(=O)c1cc(CCc2cnc(Nc3cnn(CC(F)(F)F)c3)nc2)c(F)c(OC)c1 [Compound 35]
pIC50 ([5]; read-out: FGFR2 (FP) IC50): 8.00

CNC(=O)c1cc(COc2cnc(Nc3ccc(N4CCN(C5CCCC5)CC4)c(OC)c3)nc2)c(F)c(OC)c1 [Compound 302]
pIC50 ([3]; FP): 7.92
pIC50 ([4]; Z-lyte): 8.05
pIC50 ([5]; FP): 8.15
